Key:
NALM6 cells = assay: Apoptosis kit (ANNEXIN V, PI) flow cytometry, NALM6; assay type: cell-based; conditions: 24 hours, GZD824 vs KX2-391 vs HO-3867 vs DMSO
Protocol: 1.2 After treating NALM6 and SUPB15 cells respectively with GZD824 (3 μM, 1 μM) and DMSO of different concentrations for 24 hours, apoptosis was detected using an apoptosis kit (ANNEXIN V, PI). Please refer to FIG. 2 for the results. After treating the two types of cells NALM6 and SUPB15 respectively with GZD824 of different concentrations (3 μM/L, 1 μM/L) for 24 hours, the cells were stained with the apoptosis kit (ANNEXIN V, PI), and apoptosis was detected with flow cytometry.
5.3 After treating NALM6 cells with GZD824, SRC suppressor (KX2-391), STAT3 suppressor (HO-3867) or DMSO for 24 hours, apoptosis was detected by using the apoptosis kit (ANNEXIN V, PI). The ratio of ANNEXIN V positive cells was analyzed by statistical methods. […] For the experimental results, please refer to FIG. 15.

[1] = test system: human primary leukemia cells from P #1 PDX mouse spleen; assay: Apoptosis of human primary leukemia cells from P #1 PDX mouse spleen, with and without IGF-1; assay type: cell-based; conditions: P #1 PDX spleen cells; GZD824 1 μM/L and IGF-1 10 ng/mL, 24 hours
Protocol: 6.2 Human primary leukemia cells were extracted from P #1 PDX mouse spleen and co-cultured with DMSO, GZD824 (1 μM/L), IGF-1 (10 ng/mL), or GZD824 (1 μM/L) and IGF-1 (10 ng/mL) for 24 hours. The ratios of ANNEXIN V positive cells were analyzed by statistical methods. […] Please refer to FIG. 17 for the experimental results.

Compound	ratio of apoptosis (ANNEXIN V positive cells), comparison of inhibitors (NALM6 cells)	effect of added IGF-1 on GZD824-induced apoptosis [1]
CC1(C)C=C(CN2C/C(=C\c3ccc(F)cc3)C(=O)/C(=C/c3ccc(F)cc3)C2)C(C)(C)N1O [HO-3867, reference compound]	almost the same	
O=C(Cc1ccc(-c2ccc(OCCN3CCOCC3)cc2)cn1)NCc1ccccc1 [KX2-391, reference compound]	almost the same	
IGF-1: cytokine IGF-1, added at 10 ng/mL		partly reverse the effect of GZD824 on apoptosis
